# Experiment: Rectal circulation: Cephalothin disappeared by absorption (Examples 10-14, 16-18)
# Protocol: The experiments were conducted similarly as in Example 1. […] Each sample was diluted and the quantity of Cephalothin disappeared was determined by UV-spectrophotometer of high-speed liquid chromatography.
# [1] = Table 11, promoter 0.5% W/V, Example 10 repeated, four-fold tonic
# [2] = Table 11, promoter 0.5% W/V, Example 10 repeated, isotonic
# [3] = Table 4, promoter 0.1% W/V, 0.1% W/V Cephalothin.Na, isotonic, after one hour
# [4] = Table 4, promoter 0.1% W/V, 0.1% W/V Cephalothin.Na, four-fold tonic, after one hour
# [5] = Table 4, promoter 0.1% W/V, 0.1% W/V Cephalothin.Na, two-fold tonic, after one hour
# [6] = Table 5, promoter 0.1% W/V, 0.1% W/V Cephalothin.Na, four-fold tonic, one hour
compound,measurement,setting,value
NC(CS(=O)(=O)O)C(=O)O (racemic) [DL-cysteic acid],"Cephalothin disappeared by absorption, Osmotic pressure X 1","rat, in vivo",5.3 percents
same,"Cephalothin disappeared by absorption, Osmotic pressure X 2","rat, in vivo",9.0 percents
same,"Cephalothin disappeared by absorption, Osmotic pressure X 4","rat, in vivo",14.6 percents
O=C(O)[C@@H]1C[C@@H](O)CN1 (racemic) [DL-hydroxyproline],"Cephalothin disappeared by absorption, Osmotic pressure X 4",[1],12.9 percents
same,"Cephalothin disappeared by absorption, Osmotic pressure X 1",[2],5.5 percents
NC(Cc1ccccc1)C(=O)O (racemic) [DL-phenylalanine],"Cephalothin disappeared by absorption, Osmotic pressure X 1","rat, in vivo",6.6 percents
same,"Cephalothin disappeared by absorption, Osmotic pressure X 4","rat, in vivo",15.6 percents
NC(C(=O)O)c1ccccc1 (racemic) [DL-phenylglycine],"Cephalothin disappeared by absorption, Osmotic pressure X 4","rat, in vivo",29.3 percents
"CCC(NC(=O)CN)C(=O)O (racemic) [Glycyl-DL-aminobutyric acid, glycyl-DL-aminobutyric acid]","Cephalothin disappeared by absorption, Osmotic pressure X 1","rat, in vivo",11.0 percents
same,"Cephalothin disappeared by absorption, Osmotic pressure X 4","rat, in vivo",30.4 percents
"NCC(=O)NC(CC(=O)O)C(=O)O (racemic) [Glycyl-DL-aspartic acid, glycyl-DL-aspartic acid]","Cephalothin disappeared by absorption, Osmotic pressure X 1","rat, in vivo",8.6 percents
same,"Cephalothin disappeared by absorption, Osmotic pressure X 4","rat, in vivo",19.0 percents
COC(=O)C(N)CCC(=O)O (racemic) [α-methyl DL-glutamate],"Cephalothin disappeared by absorption, Osmotic pressure X 4","Table 11, promoter 0.1% W/V, Example 10 repeated, four-fold tonic",21.4 percents
same,"Cephalothin disappeared by absorption, Osmotic pressure X 1","Table 11, promoter 0.1% W/V, Example 10 repeated, isotonic",11.9 percents
"O=C(O)c1c(O)cccc1O [2,6-dihydroxybenzoic acid]","Cephalothin.Na disappeared by absorption, Osmotic pressure X 1","rat, in vivo",9.5 percents
same,"Cephalothin.Na disappeared by absorption, Osmotic pressure X 2","rat, in vivo",15.3 percents
same,"Cephalothin.Na disappeared by absorption, Osmotic pressure X 4","rat, in vivo",22.9 percents
"CC(=O)CC(=O)Cc1ccccc1 [3-Phenylacetyl acetone, 3-phenylacetyl acetone]","Cephalothin disappeared by absorption, Osmotic pressure X 4","Table 10, diketo-compounds, Example 10 repeated, four-fold tonic",22.2 percents
same,"Cephalothin disappeared by absorption, Osmotic pressure X 1","Table 10, diketo-compounds, Example 10 repeated, isotonic",9.1 percents
same,"Cephalothin disappeared by absorption, Osmotic pressure X 2","Table 10, diketo-compounds, Example 10 repeated, two-fold tonic",16.3 percents
"O=C(O)CN(CC(=O)O)C1CCCCC1N(CC(=O)O)CC(=O)O (stereo not drawn) [CyDTA, trans-cyclohexanediaminetetraacetic acid]","Cephalothin disappeared by absorption, Osmotic pressure (%) X 1","rat, in vivo",8.1%
same,"Cephalothin disappeared by absorption, Osmotic pressure (%) X 2","rat, in vivo",15.0%
same,"Cephalothin disappeared by absorption, Osmotic pressure (%) X 4","rat, in vivo",32.3%
"O=S(=O)(O)c1cc(O)c(O)c(S(=O)(=O)O)c1 [DHBDS, 1,2-dihydroxybenzene-3,5-disulfonic acid]","Cephalothin disappeared by absorption, Osmotic pressure X 1","rat, in vivo",9.8 percents
same,"Cephalothin disappeared by absorption, Osmotic pressure X 4","rat, in vivo",22.0 percents
NCC(=O)O [DL-glycine],"Cephalothin disappeared by absorption, Osmotic pressure X 4",[1],14.0 percents
same,"Cephalothin disappeared by absorption, Osmotic pressure X 1",[2],6.9 percents
same,"Cephalothin disappeared by absorption, Osmotic pressure X 2","Table 11, promoter 0.5% W/V, Example 10 repeated, two-fold tonic",9.4 percents
"O=C(O)CN(CC(=O)O)CC(O)CN(CC(=O)O)CC(=O)O [DTPA-OH, diaminopropanoltetraacetic acid]","Cephalothin disappeared by absorption, Osmotic pressure (%) X 1","rat, in vivo",7.5%
same,"Cephalothin disappeared by absorption, Osmotic pressure (%) X 2","rat, in vivo",13.7%
same,"Cephalothin disappeared by absorption, Osmotic pressure (%) X 4","rat, in vivo",21.6%
"O=C(O)CN(CCN(CC(=O)O)CC(=O)O)CC(=O)O [EDTA.2Na, ethylenediaminetetraacetic acid]","Cephalothin disappeared by absorption, Osmotic pressure (%) X 1",[3],9.4%
"O=P(O)(O)CN(CCN(CP(=O)(O)O)CP(=O)(O)O)CP(=O)(O)O [EDTPO, ethylenediaminetetrakis(methylenephosphonicacid)]","Cephalothin disappeared by absorption, Osmotic pressure X 1","rat, in vivo",7.6 percents
same,"Cephalothin disappeared by absorption, Osmotic pressure X 4","rat, in vivo",20.0 percents
"CCC(C(=O)O)C(=O)O [Ethylmalonic acid, ethylmalonic acid]","Cephalothin disappeared by absorption, Osmotic pressure (%) X 1","rat, in vivo",12.3%
same,"Cephalothin disappeared by absorption, Osmotic pressure (%) X 2","rat, in vivo",24.2%
same,"Cephalothin disappeared by absorption, Osmotic pressure (%) X 4","rat, in vivo",36.9%
"O=P(O)(O)OC[C@H]1O[C@](O)(COP(=O)(O)O)[C@@H](O)[C@@H]1O [Fructose-1,6-diphosphoric acid]","Cephalothin disappeared by absorption, Osmotic pressure X 1","rat, in vivo",4.1 percents
same,"Cephalothin disappeared by absorption, Osmotic pressure X 2","rat, in vivo",7.5 percents
same,"Cephalothin disappeared by absorption, Osmotic pressure X 4","rat, in vivo",13.3 percents
"O=C[C@H](O)[C@@H](O)[C@@H](O)[C@H](O)C(=O)O [Galactronic acid, galacturonic acid]","Cephalothin disappeared by absorption, Osmotic pressure X 1","rat, in vivo",5.8 percents
same,"Cephalothin disappeared by absorption, Osmotic pressure X 2","rat, in vivo",10.5 percents
same,"Cephalothin disappeared by absorption, Osmotic pressure X 4","rat, in vivo",16.1 percents
"O=C[C@H](O)[C@@H](O)[C@H](O)[C@H](O)C(=O)O [Glucronic acid, glucuronic acid]","Cephalothin disappeared by absorption, Osmotic pressure X 1","rat, in vivo",5.5 percents
same,"Cephalothin disappeared by absorption, Osmotic pressure X 2","rat, in vivo",11.1 percents
same,"Cephalothin disappeared by absorption, Osmotic pressure X 4","rat, in vivo",16.4 percents
"O=C(O)CCCC(=O)O [Glutaric acid, glutaric acid]","Cephalothin disappeared by absorption, Osmotic pressure (%) X 4",[4],15.2%
same,"Cephalothin disappeared by absorption, Osmotic pressure (%) X 1",[3],5.7%
same,"Cephalothin disappeared by absorption, Osmotic pressure (%) X 2",[5],9.3%
"O=C(O)CNCC(=O)O [Iminodiacetic acid, iminodiacetic acid]","Cephalothin disappeared by absorption, Osmotic pressure (%) X 1","rat, in vivo",7.1%
same,"Cephalothin disappeared by absorption, Osmotic pressure (%) X 2","rat, in vivo",14.2%
same,"Cephalothin disappeared by absorption, Osmotic pressure (%) X 4","rat, in vivo",17.0%
"CC(=O)CCC(=O)O [Levulinic acid, levulinic acid]","Cephalothin disappeared by absorption, Osmotic pressure (%) X 1","rat, in vivo",11.9%
same,"Cephalothin disappeared by absorption, Osmotic pressure (%) X 2","rat, in vivo",21.1%
same,"Cephalothin disappeared by absorption, Osmotic pressure (%) X 4","rat, in vivo",34.3%
"O=C(O)CC(O)C(=O)O (stereo not shown) [Malic acid, malic acid]","Cephalothin disappeared by absorption, Osmotic pressure X 4","Table 6, promoter 0.1 W/V %, 0.1 W/V % Cephalothin.Na, four-fold tonic, one hour",18.8 percents
same,"Cephalothin disappeared by absorption, Osmotic pressure X 1","Table 6, promoter 0.1 W/V %, 0.1 W/V % Cephalothin.Na, isotonic, one hour",7.2 percents
same,"Cephalothin disappeared by absorption, Osmotic pressure X 2","Table 6, promoter 0.1 W/V %, 0.1 W/V % Cephalothin.Na, two-fold tonic, one hour",12.3 percents
"CN(C)[C@@H](Cc1ccccc1)C(=O)O [N--dimethylphenylalanine, N-dimethylphenylalanine]","Cephalothin disappeared by absorption, Osmotic pressure X 1","rat, in vivo",10.9 percents
same,"Cephalothin disappeared by absorption, Osmotic pressure X 4","rat, in vivo",25.5 percents
"O=C(O)CNc1ccccc1 [N--phenylglycine, N-phenylglycine]","Cephalothin disappeared by absorption, Osmotic pressure X 1","rat, in vivo",12.0 percents
same,"Cephalothin disappeared by absorption, Osmotic pressure X 2","rat, in vivo",22.3 percents
same,"Cephalothin disappeared by absorption, Osmotic pressure X 4","rat, in vivo",30.8 percents
"O=C(O)CCCCCC(=O)O [Pimellic acid, pimellic acid]","Cephalothin disappeared by absorption, Osmotic pressure (%) X 1","rat, in vivo",5.1%
same,"Cephalothin disappeared by absorption, Osmotic pressure (%) X 2","rat, in vivo",7.8%
same,"Cephalothin disappeared by absorption, Osmotic pressure (%) X 4","rat, in vivo",15.0%
"O=CC(=O)[O-].[Na+] [Sodium glyoxalate, sodium glyoxalate]","Cephalothin disappeared by absorption, Osmotic pressure (%) X 4",[6],13.1%
same,"Cephalothin disappeared by absorption, Osmotic pressure (%) X 1","Table 5, promoter 0.1% W/V, 0.1% W/V Cephalothin.Na, isotonic, one hour",4.9%
"O=C([O-])C(=O)C(=O)[O-].[Na+].[Na+] [Sodium ketomalonate, sodium ketomalonate]","Cephalothin disappeared by absorption, Osmotic pressure (%) X 1","rat, in vivo",8.4%
same,"Cephalothin disappeared by absorption, Osmotic pressure (%) X 2","rat, in vivo",12.7%
same,"Cephalothin disappeared by absorption, Osmotic pressure (%) X 4","rat, in vivo",19.6%
"O=C([O-])C(=O)[O-].[Na+].[Na+] [Sodium oxalate, sodium oxalate]","Cephalothin disappeared by absorption, Osmotic pressure (%) X 4",[4],18.3%
same,"Cephalothin disappeared by absorption, Osmotic pressure (%) X 1",[3],6.6%
"O=C([O-])c1ccccc1C(=O)[O-].[Na+].[Na+] [Sodium phthalate, sodium phthalate]","Cephalothin.Na disappeared by absorption, Osmotic pressure X 1","rat, in vivo",7.1 percents
same,"Cephalothin.Na disappeared by absorption, Osmotic pressure X 4","rat, in vivo",18.9 percents
"CC(=O)C(=O)[O-].[Na+] [Sodium pyruvate, sodium pyruvate]","Cephalothin disappeared by absorption, Osmotic pressure (%) X 1","rat, in vivo",7.0%
same,"Cephalothin disappeared by absorption, Osmotic pressure (%) X 2","rat, in vivo",11.6%
same,"Cephalothin disappeared by absorption, Osmotic pressure (%) X 4","rat, in vivo",23.1%
O=C(O)CCC(=O)O [Succinic acid],"Cephalothin disappeared by absorption, Osmotic pressure (%) X 1","rat, in vivo",8.2%
same,"Cephalothin disappeared by absorption, Osmotic pressure (%) X 2","rat, in vivo",13.1%
same,"Cephalothin disappeared by absorption, Osmotic pressure (%) X 4","rat, in vivo",24.0%
"O=C(O)/C=C(\CC(=O)O)C(=O)O [Trans-aconitic acid, trans-aconitic acid]","Cephalothin disappeared by absorption, Osmotic pressure (%) X 4",[4],27.8%
same,"Cephalothin disappeared by absorption, Osmotic pressure (%) X 1",[3],10.5%
same,"Cephalothin disappeared by absorption, Osmotic pressure (%) X 2",[5],18.6%
CCC(=O)C(=O)O [α-ketobutyric acid],"Cephalothin disappeared by absorption, Osmotic pressure (%) X 1","rat, in vivo",11.2%
same,"Cephalothin disappeared by absorption, Osmotic pressure (%) X 2","rat, in vivo",18.3%
same,"Cephalothin disappeared by absorption, Osmotic pressure (%) X 4","rat, in vivo",30.9%
O=C(O)CCC(=O)C(=O)O [α-ketoglutaric acid],"Cephalothin disappeared by absorption, Osmotic pressure (%) X 4",[6],25.6%
CCCC(=O)C(=O)O [α-ketovaleric acid],"Cephalothin disappeared by absorption, Osmotic pressure (%) X 1","rat, in vivo",9.8%
same,"Cephalothin disappeared by absorption, Osmotic pressure (%) X 2","rat, in vivo",14.7%
same,"Cephalothin disappeared by absorption, Osmotic pressure (%) X 4","rat, in vivo",23.2%
N[C@@H](CC(C(=O)O)C(=O)O)C(=O)O [γ-carboxyglutamic acid],"Cephalothin disappeared by absorption, Osmotic pressure X 1","rat, in vivo",13.1 percents
same,"Cephalothin disappeared by absorption, Osmotic pressure X 2","rat, in vivo",24.6 percents
same,"Cephalothin disappeared by absorption, Osmotic pressure X 4","rat, in vivo",31.4 percents
NCCCCCC(=O)O [ε-aminocaproic acid],"Cephalothin disappeared by absorption, Osmotic pressure X 1","rat, in vivo",7.1 percents
same,"Cephalothin disappeared by absorption, Osmotic pressure X 2","rat, in vivo",11.8 percents
same,"Cephalothin disappeared by absorption, Osmotic pressure X 4","rat, in vivo",17.0 percents

# — patent publication US4900730A, “Preparation which promotes the absorption of peptides” (priority 1981, dated 1990)
